Measurements from article PMC5218480 (PLoS ONE, 2017).

Test system: MV-4-11 cells
Assay: Gene expression microarray analysis (Affymetrix PrimeView) and GSEA
Format: cell-based, human
Set-up: RFU PODN (11730768_x_at) / Fold change /veh PODN (11730768_x_at) / RFU LINC00158 (11744669_a_at) / Fold change /veh LINC00158 (11744669_a_at) / RFU DUSP10 (11751237_a_at) / Fold change /veh DUSP10 (11751237_a_at) / RFU ID3 (11757404_x_at) / Fold change /veh ID3 (11757404_x_at) / RFU PLEKHG5 (11737974_s_at) / Fold change /veh PLEKHG5 (11737974_s_at) / RFU LRRC4B (11730491_at) / Fold change /veh LRRC4B (11730491_at) / RFU GIMAP4 (11747438_a_at) / Fold change /veh GIMAP4 (11747438_a_at) / RFU KRT8 (11758183_x_at) / Fold change /veh KRT8 (11758183_x_at) / RFU CNN1 (11734310_a_at) / Fold change /veh CNN1 (11734310_a_at) / RFU VPS37D (11726825_at) / Fold change /veh VPS37D (11726825_at) / RFU C10orf10 (11716522_x_at) / Fold change /veh C10orf10 (11716522_x_at) / RFU KIR2DL2 /// KIR2DL4 /// KIR2DL5A /// KIR2DL5B /// KIR2DS1 /// KIR2DS2 /// KIR2DS3 /// KIR2DS4 /// KIR3DL3 /// KIR3DL3 /// KIR3DS1 (11738374_at) / Fold change /veh KIR2DL2 /// KIR2DL4 /// KIR2DL5A /// KIR2DL5B /// KIR2DS1 /// KIR2DS2 /// KIR2DS3 /// KIR2DS4 /// KIR3DL3 /// KIR3DL3 /// KIR3DS1 (11738374_at) / RFU C1QL1 (11718748_at) / Fold change /veh C1QL1 (11718748_at) / RFU TMPRSS4 (11747572_a_at) / Fold change /veh TMPRSS4 (11747572_a_at) / RFU HAMP (11756126_x_at) / Fold change /veh HAMP (11756126_x_at) / RFU RNFT2 (11725882_a_at) / Fold change /veh RNFT2 (11725882_a_at) / RFU NR4A2 (11747474_a_at) / Fold change /veh NR4A2 (11747474_a_at) / RFU ABCC12 (11746883_a_at) / Fold change /veh ABCC12 (11746883_a_at) / RFU TMEM136 (11760407_x_at) / Fold change /veh TMEM136 (11760407_x_at) / RFU CLDN22 /// WWC2 (11732394_at) / Fold change /veh CLDN22 /// WWC2 (11732394_at) / RFU HLA-DPB1 (11760878_x_at) / Fold change /veh HLA-DPB1 (11760878_x_at) / RFU SPINT1 (11716480_a_at) / Fold change /veh SPINT1 (11716480_a_at) / RFU GAP43 (11754022_s_at) / Fold change /veh GAP43 (11754022_s_at) / RFU A4GNT (11735810_at) / Fold change /veh A4GNT (11735810_at) / RFU PRB3 (11715151_x_at) / Fold change /veh PRB3 (11715151_x_at) / RFU TUBB4B (11761932_at) / Fold change /veh TUBB4B (11761932_at) / RFU CAPN14 (11732068_a_at) / Fold change /veh CAPN14 (11732068_a_at) / RFU TMCC2 (11721928_a_at) / Fold change /veh TMCC2 (11721928_a_at) / RFU IRGQ (11745062_a_at) / Fold change /veh IRGQ (11745062_a_at) / RFU FAM174B (11720279_a_at) / Fold change /veh FAM174B (11720279_a_at) / RFU TMPRSS4 (11748680_a_at) / Fold change /veh TMPRSS4 (11748680_a_at) / RFU FAM212B (11763350_a_at) / Fold change /veh FAM212B (11763350_a_at) / RFU PLEKHG5 (11743358_a_at) / Fold change /veh PLEKHG5 (11743358_a_at) / RFU ZSCAN30 (11745921_a_at) / Fold change /veh ZSCAN30 (11745921_a_at) / RFU CMKLR1 (11741424_a_at) / Fold change /veh CMKLR1 (11741424_a_at) / RFU LOC101060620 /// MAPK8IP1 (11723275_at) / Fold change /veh LOC101060620 /// MAPK8IP1 (11723275_at) / RFU SPTSSB (11747773_x_at) / Fold change /veh SPTSSB (11747773_x_at) / RFU PRSS12 (11739890_at) / Fold change /veh PRSS12 (11739890_at) / RFU BIN1 (11741810_x_at) / Fold change /veh BIN1 (11741810_x_at) / RFU WNT11 (11732464_a_at) / Fold change /veh WNT11 (11732464_a_at) / RFU C10orf10 (11716521_a_at) / Fold change /veh C10orf10 (11716521_a_at) / RFU C5orf56 (11738089_at) / Fold change /veh C5orf56 (11738089_at) / RFU CYB561 (11721691_x_at) / Fold change /veh CYB561 (11721691_x_at) / RFU ANKRD19P (11752326_a_at) / Fold change /veh ANKRD19P (11752326_a_at) / RFU OR2T12 /// OR2T33 /// OR2T8 (11738714_s_at) / Fold change /veh OR2T12 /// OR2T33 /// OR2T8 (11738714_s_at) / RFU VCAN (11748164_a_at) / Fold change /veh VCAN (11748164_a_at) / RFU JSRP1 (11732532_at) / Fold change /veh JSRP1 (11732532_at) / RFU KRTAP10-11 (11738290_x_at) / Fold change /veh KRTAP10-11 (11738290_x_at) / RFU MYO3A (11730013_a_at) / Fold change /veh MYO3A (11730013_a_at) / RFU EBF3 (11725865_a_at) / Fold change /veh EBF3 (11725865_a_at) / RFU CAMK2N1 (11719241_x_at) / Fold change /veh CAMK2N1 (11719241_x_at) / RFU C5orf56 (11738088_a_at) / Fold change /veh C5orf56 (11738088_a_at) / RFU OLFML3 (11715873_a_at) / Fold change /veh OLFML3 (11715873_a_at) / RFU LOC100653217 /// NTM (11731650_a_at) / Fold change /veh LOC100653217 /// NTM (11731650_a_at) / RFU MAPK11 (11762145_a_at) / Fold change /veh MAPK11 (11762145_a_at) / RFU FIZ1 (11724087_x_at) / Fold change /veh FIZ1 (11724087_x_at) / RFU OASL (11726364_x_at) / Fold change /veh OASL (11726364_x_at) / RFU SOX15 (11748057_x_at) / Fold change /veh SOX15 (11748057_x_at) / RFU CD79A (11719716_a_at) / Fold change /veh CD79A (11719716_a_at) / RFU HIST1H1D (11736915_at) / Fold change /veh HIST1H1D (11736915_at) / RFU CASKIN2 (11723855_a_at) / Fold change /veh CASKIN2 (11723855_a_at) / RFU LOC730098 (11760151_x_at) / Fold change /veh LOC730098 (11760151_x_at) / RFU OR4N2 (11742367_at) / Fold change /veh OR4N2 (11742367_at) / RFU PRRT2 (11749266_a_at) / Fold change /veh PRRT2 (11749266_a_at) / RFU SNX32 (11753110_a_at) / Fold change /veh SNX32 (11753110_a_at) / RFU CDHR5 (11726645_a_at) / Fold change /veh CDHR5 (11726645_a_at) / RFU RCAN1 (11760418_a_at) / Fold change /veh RCAN1 (11760418_a_at) / RFU FAM167A (11723789_a_at) / Fold change /veh FAM167A (11723789_a_at) / RFU FAM26E (11764081_at) / Fold change /veh FAM26E (11764081_at) / RFU ISYNA1 (11749810_s_at) / Fold change /veh ISYNA1 (11749810_s_at) / RFU ACY1 (11761880_at) / Fold change /veh ACY1 (11761880_at) / RFU 11764098_at / Fold change /veh 11764098_at / RFU SAMD14 (11745864_x_at) / Fold change /veh SAMD14 (11745864_x_at) / RFU NPB (11741838_a_at) / Fold change /veh NPB (11741838_a_at) / RFU TMPRSS6 (11731388_a_at) / Fold change /veh TMPRSS6 (11731388_a_at) / RFU KRTAP10-2 (11738614_at) / Fold change /veh KRTAP10-2 (11738614_at) / RFU ARHGAP8 /// PRR5-ARHGAP8 (11727945_x_at) / Fold change /veh ARHGAP8 /// PRR5-ARHGAP8 (11727945_x_at) / RFU KRTAP5-7 /// NADSYN1 (11734609_at) / Fold change /veh KRTAP5-7 /// NADSYN1 (11734609_at) / RFU RASL12 (11751679_a_at) / Fold change /veh RASL12 (11751679_a_at) / RFU CDKN2B (11736163_a_at) / Fold change /veh CDKN2B (11736163_a_at) / RFU PRF1 (11729649_at) / Fold change /veh PRF1 (11729649_at) / RFU, ZNF638 /// ZNF638-IT1 / Fold change vs veh, ZNF638 /// ZNF638-IT1 / RFU, PANK3 / Fold change vs veh, PANK3 / RFU, SH3YL1 / Fold change vs veh, SH3YL1 / RFU, ZEB2 / Fold change vs veh, ZEB2 / RFU, NRIP1 / Fold change vs veh, NRIP1 / RFU, PTTG1IP / Fold change vs veh, PTTG1IP / RFU, CAPN2 / Fold change vs veh, CAPN2 / RFU, MED14 / Fold change vs veh, MED14 / RFU, SNORA58 / Fold change vs veh, SNORA58 / RFU, C1orf63 / Fold change vs veh, C1orf63 / RFU, LRRFIP1 / Fold change vs veh, LRRFIP1 / RFU, NDUFAF7 / Fold change vs veh, NDUFAF7 / RFU, SLC12A2 / Fold change vs veh, SLC12A2 / RFU, IBTK / Fold change vs veh, IBTK / RFU, ESF1 / Fold change vs veh, ESF1 / Fold change vs veh, TMEM50B / RFU, TAOK1 / Fold change vs veh, TAOK1 / RFU, ACBD3 / Fold change vs veh, ACBD3 / RFU, TMA16 / Fold change vs veh, TMA16 / RFU, RWDD3 / Fold change vs veh, RWDD3 / RFU, BCAT1 / Fold change vs veh, BCAT1 / RFU, EDEM3 / Fold change vs veh, EDEM3 / RFU, TMEM33 / Fold change vs veh, TMEM33 / RFU, WDR75 / Fold change vs veh, WDR75 / RFU, AHCTF1 / Fold change vs veh, AHCTF1 / RFU, TFRC / Fold change vs veh, TFRC / RFU, ZDHHC17 / Fold change vs veh, ZDHHC17 / RFU, NOM1 / Fold change vs veh, NOM1 / RFU, ARL8B / Fold change vs veh, ARL8B / RFU, ZBTB11 / Fold change vs veh, ZBTB11 / RFU, TAMM41 / Fold change vs veh, TAMM41 / RFU, KIAA1704 /// LOC100996395 / Fold change vs veh, KIAA1704 /// LOC100996395 / RFU, ING1 / Fold change vs veh, ING1 / RFU, TRMT61B / Fold change vs veh, TRMT61B / RFU, FUBP3 / Fold change vs veh, FUBP3 / RFU, TP53 / Fold change vs veh, TP53 / RFU, TNKS2 / Fold change vs veh, TNKS2 / RFU, ZFP14 / Fold change vs veh, ZFP14 / RFU, ACTR2 / Fold change vs veh, ACTR2 / RFU, PPP3R1 / Fold change vs veh, PPP3R1 / RFU, PIK3R1 / Fold change vs veh, PIK3R1 / RFU, HNRNPA1 / Fold change vs veh, HNRNPA1 / RFU, RNF170 / Fold change vs veh, RNF170 / RFU, ZNF28 / Fold change vs veh, ZNF28 / RFU, RNGTT / Fold change vs veh, RNGTT / RFU, OGT / Fold change vs veh, OGT / RFU, BRD1 / Fold change vs veh, BRD1 / RFU, MARS / Fold change vs veh, MARS / RFU, ZNF655 / Fold change vs veh, ZNF655 / RFU, FAHD1 / Fold change vs veh, FAHD1 / RFU, BDP1 / Fold change vs veh, BDP1 / RFU, LRRCC1 / Fold change vs veh, LRRCC1 / RFU, ARID1A / Fold change vs veh, ARID1A / RFU, ZNF146 / Fold change vs veh, ZNF146 / RFU, ZNF330 / Fold change vs veh, ZNF330 / RFU, GPN3 / Fold change vs veh, GPN3 / RFU, C9orf123 / Fold change vs veh, C9orf123 / RFU, N4BP2L2 / Fold change vs veh, N4BP2L2 / RFU, ARFIP1 / Fold change vs veh, ARFIP1 / RFU, FAM179B / Fold change vs veh, FAM179B / RFU, BCL10 / Fold change vs veh, BCL10 / RFU, UHRF1BP1L / Fold change vs veh, UHRF1BP1L / RFU, BET1 / Fold change vs veh, BET1 / RFU, CNOT2 / Fold change vs veh, CNOT2 / RFU, ZNF268 / Fold change vs veh, ZNF268 / Fold change vs veh, ZNF507 / RFU, DGCR2 / Fold change vs veh, DGCR2 / RFU, WDSUB1 / Fold change vs veh, WDSUB1 / Fold change vs veh, HSP90B1 /// MIR3652 / RFU, ADSS / Fold change vs veh, ADSS / RFU, GK / Fold change vs veh, GK / RFU, ZNF148 / Fold change vs veh, ZNF148 / RFU, TAF9 / Fold change vs veh, TAF9 / RFU, SLC1A5 / Fold change vs veh, SLC1A5 / RFU, SLMO2 / Fold change vs veh, SLMO2 / RFU, ABCC4 / Fold change vs veh, ABCC4 / RFU, LOC101060439 /// RAP1B / Fold change vs veh, LOC101060439 /// RAP1B / RFU, RFX7 / Fold change vs veh, RFX7 / RFU, GTPBP10 / Fold change vs veh, GTPBP10 / RFU, CNEP1R1 / Fold change vs veh, CNEP1R1 / RFU, BIVM-ERCC5 /// ERCC5 / Fold change vs veh, BIVM-ERCC5 /// ERCC5 / RFU, ILF3 / Fold change vs veh, ILF3 / RFU 11762660_at / Fold change /veh 11762660_at / RFU VCAN (11757783_s_at) / Fold change /veh VCAN (11757783_s_at) / RFU DDX43 (11728927_at) / Fold change /veh DDX43 (11728927_at) / RFU KRT8 (11758188_x_at) / Fold change /veh KRT8 (11758188_x_at) / RFU NKD1 (11759106_at) / Fold change /veh NKD1 (11759106_at) / RFU SRD5A1 (11742802_a_at) / Fold change /veh SRD5A1 (11742802_a_at) / RFU TPSAB1 /// TPSB2 (11721975_s_at) / Fold change /veh TPSAB1 /// TPSB2 (11721975_s_at) / RFU GSTM3 (11746129_a_at) / Fold change /veh GSTM3 (11746129_a_at) / RFU IL23R (11737362_x_at) / Fold change /veh IL23R (11737362_x_at) / RFU TMEM51 (11727254_a_at) / Fold change /veh TMEM51 (11727254_a_at) / RFU PIWIL2 (11732686_x_at) / Fold change /veh PIWIL2 (11732686_x_at) / RFU ORM1 (11744905_x_at) / Fold change /veh ORM1 (11744905_x_at) / RFU CCDC152 (11743942_at) / Fold change /veh CCDC152 (11743942_at) / RFU ECM1 (11717891_a_at) / Fold change /veh ECM1 (11717891_a_at) / RFU IL23R (11748794_a_at) / Fold change /veh IL23R (11748794_a_at) / RFU TNFAIP8L3 (11732012_x_at) / Fold change /veh TNFAIP8L3 (11732012_x_at) / RFU MBOAT4 (11741988_at) / Fold change /veh MBOAT4 (11741988_at) / RFU 11764193_at / Fold change /veh 11764193_at / RFU TMEM53 (11763286_at) / Fold change /veh TMEM53 (11763286_at) / RFU MAGEB2 (11727129_at) / Fold change /veh MAGEB2 (11727129_at) / RFU TMEM200A (11744735_a_at) / Fold change /veh TMEM200A (11744735_a_at) / RFU CCDC152 (11751479_a_at) / Fold change /veh CCDC152 (11751479_a_at) / RFU FAM211A (11726209_a_at) / Fold change /veh FAM211A (11726209_a_at) / RFU RGS16 (11746705_a_at) / Fold change /veh RGS16 (11746705_a_at) / RFU VCAN (11755009_s_at) / Fold change /veh VCAN (11755009_s_at) / RFU RHOB (11743442_s_at) / Fold change /veh RHOB (11743442_s_at) / RFU RGS16 (11720943_a_at) / Fold change /veh RGS16 (11720943_a_at) / RFU RGS16 (11720944_at) / Fold change /veh RGS16 (11720944_at) / RFU, VPS4B / Fold change vs veh, VPS4B / RFU, CREB1 / Fold change vs veh, CREB1 / RFU, DNAJC13 / Fold change vs veh, DNAJC13 / RFU, GNAQ / Fold change vs veh, GNAQ / RFU, CDK5R1 / Fold change vs veh, CDK5R1 / RFU, ZRANB3 / Fold change vs veh, ZRANB3 / RFU, CUL4A / Fold change vs veh, CUL4A / RFU, CCNY / Fold change vs veh, CCNY / RFU, UFL1 / Fold change vs veh, UFL1 / RFU, COG3 / Fold change vs veh, COG3 / RFU, DIAPH2 / Fold change vs veh, DIAPH2 / RFU, SKA2 / Fold change vs veh, SKA2 / RFU, AFF3 / Fold change vs veh, AFF3 / RFU, LMF1 / Fold change vs veh, LMF1 / RFU, IPO11 / Fold change vs veh, IPO11 / RFU, DFFB / Fold change vs veh, DFFB / RFU, FOXP1 / Fold change vs veh, FOXP1 / RFU, CARD8 / Fold change vs veh, CARD8 / RFU, STRN3 / Fold change vs veh, STRN3 / RFU, ADK / Fold change vs veh, ADK / RFU, RASSF2 / Fold change vs veh, RASSF2 / RFU, WIPF1 / Fold change vs veh, WIPF1 / RFU, LARP1B / Fold change vs veh, LARP1B / RFU, RASA1 / Fold change vs veh, RASA1 / RFU, RB1 / Fold change vs veh, RB1 / RFU, PPFIA1 / Fold change vs veh, PPFIA1 / RFU, MAT2A / Fold change vs veh, MAT2A / RFU, CCT5 / Fold change vs veh, CCT5 / RFU, WDR92 / Fold change vs veh, WDR92 / RFU, CUX1 / Fold change vs veh, CUX1 / RFU, TTC7A / Fold change vs veh, TTC7A / RFU, TMEM135 / Fold change vs veh, TMEM135 / RFU, DEPTOR / Fold change vs veh, DEPTOR / RFU, CPM / Fold change vs veh, CPM / RFU, DNAJB6 / Fold change vs veh, DNAJB6 / RFU, CACNA2D3 / Fold change vs veh, CACNA2D3 / RFU, DTX4 / Fold change vs veh, DTX4 / RFU, TFCP2 / Fold change vs veh, TFCP2 / RFU, GMCL1 /// GMCL1P1 / Fold change vs veh, GMCL1 /// GMCL1P1 / RFU, AEBP2 / Fold change vs veh, AEBP2 / RFU, SNHG1 /// SNORD22 /// SNORD25 /// SNORD26 /// SNORD27 /// SNORD28 /// SNORD29 /// SNORD31 / Fold change vs veh, SNHG1 /// SNORD22 /// SNORD25 /// SNORD26 /// SNORD27 /// SNORD28 /// SNORD29 /// SNORD31 / Fold change (Aza/veh), C12orf56 (ProbeSet 11735607_a_at) / Fold change (ACY-1035/veh), C12orf56 (ProbeSet 11735607_a_at) / Fold change (Aza/veh), FGFR1OP (ProbeSet 11751329_s_at) / Fold change (ACY-1035/veh), FGFR1OP (ProbeSet 11751329_s_at) / Fold change (Aza/veh), VPS36 (ProbeSet 11739960_a_at) / Fold change (ACY-1035/veh), VPS36 (ProbeSet 11739960_a_at) / RFU SYPL1 (11715823_x_at) / Fold change /veh SYPL1 (11715823_x_at) / RFU IGFBP7 (11715501_s_at) / Fold change /veh IGFBP7 (11715501_s_at) / RFU REEP3 (11722064_at) / Fold change /veh REEP3 (11722064_at) / RFU IGLL1 (11728026_x_at) / Fold change /veh IGLL1 (11728026_x_at): dose or concentration left out as unconfirmed
Settings: ProbeSet 11717702_a_at; LIST D

In the case of Nc1ncn([C@@H]2O[C@H](CO)[C@@H](O)[C@H]2O)c(=O)n1 [azacitidine], the “RFU, RB1” value is reported as 184.53 RFU.
